Here are results for 35 compounds from the supplement of paper PMC11003180.

Experiment in all cases: drug sensitivity score (DSS) from 5-dose viability curve (DSS (area-based score, 0 = no response)); higher = more sensitive (stronger viability inhibition); extreme values may be limits of the assay
Assay [1] has as its system MDCK wild-type - doxycycline. As to conditions: doxycycline: none; 72 h. The procedure, abridged:
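Viability of parental MDCK cells cultured without doxycycline was measured by CellTiter-Glo luminescence and scaled per plate between vehicle and positive controls. The cells had been exposed for 72 h to an oncology library of 528 drugs at five doses (1-10,000 nM). Drug sensitivity scores were calculated from dose-response curve fits in the Breeze pipeline.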

Assay [2] has as its system MDCK p60AmotL2-inducible + doxycycline (p60AmotL2 expressing). To be noted: doxycycline: 10 ng/mL; 72 h. The essentials:
(§1)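 Parental MDCK cells and MDCK cells with doxycycline-inducible p60AmotL2, both given doxycycline at 10 ng/mL in the medium before plating, were dispensed at 2000 cells/well onto pre-spotted 384-well plates. The plates held an oncology library of 528 drugs at five doses (1-10,000 nM) and were incubated 72 h at 37 °C. Viability was read as CellTiter-Glo luminescence and scaled per plate between vehicle and positive controls. Drug sensitivity scores came from dose-response curve fits in the Breeze pipeline.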

Assay [3] deals with MDCK wild-type + doxycycline. As to conditions: doxycycline: 10 ng/mL; 72 h. The procedure, abridged: as §1

For `CO[C@H]1C(=O)[C@]2(C)[C@@H](OC)C[C@H]3OC[C@@]3(OC(C)=O)[C@H]2[C@H](OC(=O)c2ccccc2)[C@]2(O)C[C@H](OC(=O)[C@H](O)[C@@H](NC(=O)OC(C)(C)C)c3ccccc3)C(C)=C1C2(C)C` [Cabazitaxel], the figures for the drug sensitivity score in assay [1], in assay [2] and in assay [3] were 33.8, 38 and 37.7, respectively.

For the compound `COc1cc2nccc(Oc3ccc(NC(=O)C4(C(=O)Nc5ccc(F)cc5)CC4)cc3)c2cc1OC` [Cabozantinib], the drug sensitivity score in assay [1], in assay [2] and in assay [3] was 0 throughout.

In the case of `C=CC(=O)Nc1cc2c(Nc3ccc(F)c(Cl)c3)ncnc2cc1OCCCN1CCOCC1` [Canertinib], the drug sensitivity score is 7.9 in assay [1], 15.2 in assay [2] and 9.6 in assay [3].

On to `CCCCCOC(=O)Nc1nc(=O)n([C@@H]2O[C@H](C)[C@@H](O)[C@H]2O)cc1F` [Capecitabine], for which the drug sensitivity score in assay [1] was 5.1; in assay [2], 7.1; in assay [3], 7.

`CNC(=O)c1ccc(-c2cnc3ncc(Cc4ccc5ncccc5c4)n3n2)cc1F` [Capmatinib]: the drug sensitivity score in assay [1], in assay [2] and in assay [3] was 0 throughout.

Consider `O=C(O)C1(C(=O)O)CCC1.[NH2-].[NH2-].[Pt+2]` [Carboplatin], for which the drug sensitivity score is 3.6 in assay [1], 5 in assay [2] and 4.4 in assay [3].

Turning to `CC(C)C[C@H](NC(=O)[C@H](CCc1ccccc1)NC(=O)CN1CCOCC1)C(=O)N[C@@H](Cc1ccccc1)C(=O)N[C@@H](CC(C)C)C(=O)[C@@]1(C)CO1` [Carfilzomib], the drug sensitivity score in assay [1] was 21.2; in assay [2] it was 25.7; in assay [3], 24.6.

On to `COc1cc2c(Oc3ccc4[nH]c(C)cc4c3F)ncnc2cc1OCCCN1CCCC1` [Cediranib], for which the drug sensitivity score in assay [1] is 0; in assay [2], 0.3; in assay [3], 0.

Consider `Cc1ccc(-c2cc(C(F)(F)F)nn2-c2ccc(S(N)(=O)=O)cc2)cc1` [Celecoxib], for which the drug sensitivity score in assay [1], in assay [2] and in assay [3] was 0 in each case.

Regarding `CCS(=O)(=O)N1CCN(c2ccc(Nc3ncc(C(N)=O)c(NC4CC4)n3)cc2)CC1` [Cerdulatinib], the drug sensitivity score was found to be 0.2 in assay [1], 0.2 in assay [2] and 0 in assay [3].

On to `Cc1cc(Nc2ncc(Cl)c(Nc3ccccc3S(=O)(=O)C(C)C)n2)c(OC(C)C)cc1C1CCNCC1` [Ceritinib], for which the results for the drug sensitivity score in assay [1], in assay [2] and in assay [3] were 0, 0 and 0.6, respectively.

`CCN(CC)CCCC(C)Nc1ccnc2cc(Cl)ccc12` (stereo not given) [Chloroquine]: the drug sensitivity score stood at 5.1 in assay [1], 5.2 in assay [2] and 4.5 in assay [3].

Regarding `CC(C)[C@H]1C(=O)N[C@@H](CCCNC(=N)N)C(=O)NCC(=O)N[C@@H](CC(=O)O)C(=O)N[C@H](Cc2ccccc2)C(=O)N1C` [Cilengitide], the figures for the drug sensitivity score in assay [1], in assay [2] and in assay [3] were 0.2, 3.8 and 0, respectively.

Take `N.N.[Cl][Pt][Cl]` [Cisplatin]: the drug sensitivity score in assay [1] amounted to 5.7; in assay [2], 13.5; in assay [3], 12.2.

Consider `Nc1nc(Cl)nc2c1ncn2[C@H]1C[C@H](O)[C@@H](CO)O1` [Cladribine], for which the drug sensitivity score stood at 1.2 in assay [1], 2.3 in assay [2] and 2.3 in assay [3].

Take `Nc1nc(Cl)nc2c1ncn2[C@@H]1O[C@H](CO)[C@@H](O)[C@@H]1F` [Clofarabine]: the drug sensitivity score amounted to 12.1 in assay [1], 13.8 in assay [2] and 12.9 in assay [3].

As for `CCN(CC)CCOc1ccc(C(=C(Cl)c2ccccc2)c2ccccc2)cc1` [Clomifene], the drug sensitivity score in assay [1] was found to be 4.4; in assay [2], 5.3; in assay [3], 4.7.

Consider `O=C(c1ccc(F)c(F)c1Nc1ccc(I)cc1F)N1CC(O)([C@@H]2CCCCN2)C1` [Cobimetinib], for which the drug sensitivity score amounted to 3.9 in assay [1], 9.8 in assay [2] and 3.4 in assay [3].

Consider `COc1c(OCCCN2CCOCC2)ccc2c1N=C(NC(=O)c1cnc(N)nc1)N1CCN=C21` [Copanlisib], for which the values for the drug sensitivity score in assay [1], in assay [2] and in assay [3] were 5.8, 10.9 and 6.2, respectively.

Turning to `CC1(COc2ccc3c(c2)ncn3-c2ccc3cccc(N4CCC(N)CC4)c3n2)COC1` [Crenolanib], the drug sensitivity score in assay [1] was found to be 5.4; in assay [2], 6.5; in assay [3], 8.1.

Take `C[C@@H](Oc1cc(-c2cnn(C3CCNCC3)c2)cnc1N)c1c(Cl)ccc(F)c1Cl` [Crizotinib]: the drug sensitivity score in assay [1], in assay [2] and in assay [3] was 0 in each case.

Turning to `Nc1ccn([C@@H]2O[C@H](CO)[C@@H](O)[C@@H]2O)c(=O)n1` [Cytarabine], the drug sensitivity score stood at 1.8 in assay [1], 4 in assay [2] and 2.3 in assay [3].

For the compound `CC(C)(C)c1nc(-c2cccc(NS(=O)(=O)c3c(F)cccc3F)c2F)c(-c2ccnc(N)n2)s1` [Dabrafenib], the drug sensitivity score in assay [1], in assay [2] and in assay [3] was 0 in each case.

On to `COc1cc2ncnc(Nc3ccc(F)c(Cl)c3)c2cc1NC(=O)/C=C/CN1CCCCC1` [Dacomitinib], for which the drug sensitivity score in assay [1] is 5.3; in assay [2], 19.3; in assay [3], 8.4.

For `Cc1c2oc3c(C)ccc(C(=O)N[C@@H]4C(=O)N[C@H](C(C)C)C(=O)N5CCC[C@H]5C(=O)N(C)CC(=O)N(C)[C@@H](C(C)C)C(=O)O[C@@H]4C)c3nc-2c(C(=O)N[C@@H]2C(=O)N[C@H](C(C)C)C(=O)N3CCC[C@H]3C(=O)N(C)CC(=O)N(C)[C@@H](C(C)C)C(=O)O[C@@H]2C)c(N)c1=O` [Dactinomycin], the drug sensitivity score in assay [1] is 25.2; in assay [2] it was 32.9; in assay [3], 27.6.

On to `Cn1c(=O)n(-c2ccc(C(C)(C)C#N)cc2)c2c3cc(-c4cnc5ccccc5c4)ccc3ncc21` [Dactolisib], for which the drug sensitivity score was 9.2 in assay [1], 17.7 in assay [2] and 10.9 in assay [3].

Turning to `CO[C@@H](C(=O)N1Cc2[nH]nc(NC(=O)c3ccc(N4CCN(C)CC4)cc3)c2C1)c1ccccc1` [Danusertib], the drug sensitivity score came to 4.4 in assay [1], 8.4 in assay [2] and 5.6 in assay [3].

`O=C(/C=C/c1cccnc1)NCCCCC1CCN(C(=O)c2ccccc2)CC1` [Daporinad]: the drug sensitivity score in assay [1] is 29.3; in assay [2], 29.3; in assay [3], 29.1.

For the compound `CCN(CC)CCN(Cc1ccc(-c2ccc(C(F)(F)F)cc2)cc1)C(=O)Cn1c(SCc2ccc(F)cc2)nc(=O)c2c1CCC2` [Darapladib], the drug sensitivity score in assay [1], in assay [2] and in assay [3] was 0 in each case.

Take `Cc1nc(Nc2ncc(C(=O)Nc3c(C)cccc3Cl)s2)cc(N2CCN(CCO)CC2)n1` [Dasatinib]: the figures for the drug sensitivity score in assay [1], in assay [2] and in assay [3] were 4.9, 13.7 and 1.8, respectively.

As to `COc1cccc2c1C(=O)c1c(O)c3c(c(O)c1C2=O)C[C@@](O)(C(C)=O)C[C@@H]3O[C@H]1C[C@H](N)[C@H](O)[C@H](C)O1` [Daunorubicin], the drug sensitivity score turned out to be 9.5 in assay [1], 11.6 in assay [2] and 10.3 in assay [3].

`CC[C@@](C)(Nc1ccnc(-c2c[nH]c3ncccc23)n1)C(=O)NCC(F)(F)F` [Decernotinib]: the drug sensitivity score in assay [1], in assay [2] and in assay [3] was 0 each time.

Regarding `Nc1ncn([C@H]2C[C@H](O)[C@@H](CO)O2)c(=O)n1` [Decitabine], the figures for the drug sensitivity score in assay [1], in assay [2] and in assay [3] were 1.1, 0.6 and 0, respectively.

As for `CC(=O)N(O)CCCCCNC(=O)CCC(=O)N(O)CCCCCNC(=O)CCC(=O)N(O)CCCCCN` [Deferoxamine], the drug sensitivity score in assay [1] is 3.3; in assay [2] it was 5.1; in assay [3], 3.9.

With `C[C@@H]1C[C@H]2[C@@H]3CCC4=CC(=O)C=C[C@]4(C)[C@@]3(F)[C@@H](O)C[C@]2(C)[C@@]1(O)C(=O)CO` [Dexamethasone], the drug sensitivity score in assay [1], in assay [2] and in assay [3] was 0 in each case.
